Experimental data as given in EP0305646B1, “3-Hydroxypyrid-4-ones and pharmaceutical compositions” (BRITISH TECHNOLOGY GROUP LIMITED, priority 1983, dated 1984).
Where two headings read alike, the source gives them in different places.

Tests used:
[1] = Affinity for iron (III) expressed as log Ksol; format: physicochemical; conditions: > 6.0 needed to remove iron from transferrin
Source text: In order to solubilise iron (III) hydroxide, log Ksol must be greater than 0 and in order to remove iron from transferrin, log Ksol should be in excess of 6.0. The log Ksol values for 1,2-dimethyl-3-hydroxypyrid-4-one, by way of example, is 9.5, thus comparing favourably with those of the bidentate hydroxamates at about 4.0, of catechols at about 8.0, of desferrioxamine at 6.0, and of diethylenetriamine penta-acetic acid (DTPA) at 2.0. Moreover, the ability of the compounds to remove iron efficiently has been confirmed both by in vitro test and also by in vivo tests in mice. It is particularly significant that these latter tests are successful whether the compound is given intraperitoneally or orally by stomach tube, the compounds generally either being stable under acidic conditions or being converted thereby to acid stable active compounds.

Horse spleen ferritin [2] = biological target: T1, Horse spleen ferritin (Equus caballus, UniProt P02791+Q8MIP0); assay: Mobilisation of iron from ferritin (dialysis against a pyridone solution); format: biochemical; conditions: ferritin 10^-6 M, pH 7.4, 3 x 10^-3 M pyridone
T1 construct: Horse spleen ferritin (Sigma) was used without further purification; purchased Sigma; host or cells: horse spleen (tissue-derived)
Procedure: Horse spleen ferritin (Sigma) was used without further purification and its iron content was estimated spectrophotometrically at 420 nm. The ferritin solution in phosphate buffered saline (Dulbecco-OXOID, 10^-6 M, pH 7.4) was enclosed in a Visking dialysis tube and dialysed against a 3 x 10^-3 M buffered solution of one of various pyridones as indicated in Table 2. The absorption spectrum of the resulting iron (III) complex in the dialysis solution was recorded after 6 and 24 hours. For comparative purposes, the procedure was repeated using a blank control.
The results are shown in Table 2 where the percentage of ferritin-bound iron removed by the compound under test is shown. For comparative purposes, results reported in the literature for similar tests with 1 x 10^-3 M desferrioxamine (Crichton et al., J. Inorganic Biochem., 1980, 13, 305) and with 6 x 10^-3 M LICAMS (Tufano et al., Biochem. Biophys. Acta, 1981, 668, 420) are also given in the Table. It will be seen that the pyridone compounds are able to remove iron effectively from ferritin in contrast with desferrioxamine and LICAMS (although the latter will remove iron in the presence of ascorbic acid such a mixture is very difficult to manage clinically). […]

Mice = assay: In vivo iron binding capacity: excretion of 59Fe in iron dextran loaded mice; conditions: 10 mg per mouse, control = 100%
Procedure: Mice were injected intraperitoneally with iron dextran (2 mg) at weekly intervals over a four week period. Two weeks after the final injection, the mice were injected via the tail vein with ^59Fe lactoferrin (human lactoferrin, 1 mg per injection 2 µCi). The mice were then caged individually. After a ten day period, 1-acetyl-3-hydroxypyrid-2-one was administered to groups of 8 mice at 10 mg per mouse either intraperitoneally or intragastrically (in each case 3 of the mice received only one dose whilst 5 received 2 doses at a 24 hour interval). The excretion of iron was recorded at either 12 or 24 hourly intervals over a three day period before and a two day period after administration of the compound. For comparative purposes, the procedure was repeated with a blank control and with desferrioxamine, also at 10 mg per mouse (the intraperitoneally treated mice receiving one dose of desferrioxamine and the intragastrically treated mice two doses at a 24 hour interval).
The results are shown in Table 4, being given on the basis of the control representing 100% excretion, and illustrate the particular advantage of the pyridones as compared with desferrioxamine for oral administration the levels of iron excreted on intragastric administration being higher for all the pyridones tested than for desferroxamine. […] However, this is not the case here, the large SD values being a consequence of the large range among the positive responses.

Human transferrin = biological target: T2, Human transferrin (Homo sapiens, UniProt P02787); assay: Mobilisation of iron from 59Fe-loaded transferrin; format: biochemical; conditions: 59Fe transferrin 10^-5 M, compound 4 x 10^-3 M in tris HCl (0.1 M, pH 7.4); for Percentage of iron removed 4 hours: incubation 4 hours; for Percentage of iron removed 18 hours: incubation 18 hours
T2 construct: purchased Sigma
Procedure: Human transferrin (Sigma) was loaded with iron (III) by the method of Bates and Schlaback. J. Biol. Chem. (1973) 248, 3228. ^59Iron (III) transferrin (10^-5 M) was incubated with a 4 x 10^-3 M solution in tris HCl (0.1 M, pH 7.4) of one of various pyridones as indicated in Table 3 for periods of 4 hours and 18 hours. The solution was then dialysed against phosphate buffered saline for 24 hours. The ^59Fe remaining in the dialysis tube was then recorded. For comparative purposes, this procedure was repeated with desferrioxamine using incubation for both 4 hours and 18 hours and with EDTA using incubation for 4 hours only.
The results are shown in Table 3 in terms of the percentage of transferrin bound iron removed by the compound under test. It will be seen that the pyrid-4-one compounds are very effective at iron removal, as compared with desferrioxamine or EDTA, after only 4 hours.

[3] = Partition coefficient Kpart between n-octanol and aqueous tris hydrochloride, by spectrophotometry; conditions: n-octanol / tris hcl, pH 7.4
Procedure: The partition coefficient Kpart being the ratio (concentration of compound in n-octanol)/)concentration of compound in aqueous phase) on partition between n-octanol and aqueous tris hydrochloride (20 mM, pH 7.4), is measured by spectrophotometry at 20°C for various of the compounds of the previous Examples and for their 3:1 iron(III) complexes at (10^-4M by spectrophotometry. The solutions of the complexes are either produced by dissolving the pre-formed complex in the aqueous tris hydrochloride or are prepared in situ in the buffer by the admixture of a 3:1 molar ratio of the pyridone and ferric chloride, the pH thereafter being readjusted to 7.4 if necessary (the same product will be obtained in the buffer solution irrespective of whether the pyridone used is in a salt form or not). Acid washed glassware is used throughout and, following mixing of 5 ml of the 10^-4M aqueous solution with 5 ml n-octanol for 1 minute, the aqueous n-octanol mixture is centrifuged at 1,000 g for 30 seconds. The two resulting phases are separated for a concentration determination by spectrophotometry on each. For the free hydroxypyridones, the range 220-240 nm is used for concentration determinations whilst for the iron complexes, the range 340-360 nm is used.

Horse spleen ferritin [4] = biological target: T1, Horse spleen ferritin; conditions: cited from earlier work

T1 sequence (P02791 2-175 limits assumed): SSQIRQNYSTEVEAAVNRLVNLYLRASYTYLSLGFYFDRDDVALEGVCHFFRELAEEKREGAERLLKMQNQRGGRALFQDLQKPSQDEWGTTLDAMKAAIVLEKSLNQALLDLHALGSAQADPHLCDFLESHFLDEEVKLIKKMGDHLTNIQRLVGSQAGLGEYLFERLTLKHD
T1 sequence (Q8MIP0 whole entry): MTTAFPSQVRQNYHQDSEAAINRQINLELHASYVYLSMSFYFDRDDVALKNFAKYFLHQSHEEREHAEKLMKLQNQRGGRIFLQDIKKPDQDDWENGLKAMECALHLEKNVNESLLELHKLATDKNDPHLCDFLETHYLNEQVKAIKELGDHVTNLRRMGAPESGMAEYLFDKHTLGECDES
T2 sequence (P02787 20-698): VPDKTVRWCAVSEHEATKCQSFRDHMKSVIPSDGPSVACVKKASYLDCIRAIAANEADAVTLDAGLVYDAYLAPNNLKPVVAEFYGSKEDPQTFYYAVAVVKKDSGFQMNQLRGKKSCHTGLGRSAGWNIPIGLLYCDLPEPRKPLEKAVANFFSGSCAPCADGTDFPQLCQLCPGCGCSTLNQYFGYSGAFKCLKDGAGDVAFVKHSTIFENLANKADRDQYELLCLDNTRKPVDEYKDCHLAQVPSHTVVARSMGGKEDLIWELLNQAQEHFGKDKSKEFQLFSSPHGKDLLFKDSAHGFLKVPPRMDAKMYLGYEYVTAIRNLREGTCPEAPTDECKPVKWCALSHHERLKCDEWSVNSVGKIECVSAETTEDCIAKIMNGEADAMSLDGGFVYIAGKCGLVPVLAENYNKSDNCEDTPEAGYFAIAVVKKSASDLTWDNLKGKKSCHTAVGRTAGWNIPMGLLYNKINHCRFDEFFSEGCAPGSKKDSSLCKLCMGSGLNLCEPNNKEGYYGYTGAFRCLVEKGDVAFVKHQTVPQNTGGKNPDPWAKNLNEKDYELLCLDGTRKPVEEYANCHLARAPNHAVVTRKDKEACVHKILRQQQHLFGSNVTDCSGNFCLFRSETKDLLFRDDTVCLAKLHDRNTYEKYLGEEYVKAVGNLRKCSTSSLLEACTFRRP

Compound | log Ksol [1] | Percentage of iron removed 6 hours (Horse spleen ferritin [2]) [%] | Percentage of iron removed 24 hours (Horse spleen ferritin [2]) [%] | Excretion of ^59Fe±SD percent (Mice; Intraperitoneal Administration) [%] | Percentage of iron removed 4 hours (Human transferrin) [%] | Percentage of iron removed 18 hours (Human transferrin) [%] | also measured
Cc1c(O)c(=O)ccn1C [1,2-dimethyl-3-hydroxypyrid-4-one] | 9.5 | – | – | – | – | – | –
Cc1c(O)c(=O)ccn1CCO [3-hydroxy-1-(2'-hydroxyethyl)-2-methylpyrid-4-one] | – | 31 | 49 | 170 ± 49 | 94 | 96 | –
COC(=O)CCn1ccc(=O)c(O)c1C [3-hydroxy-1-(2'-methoxycarbonylethyl)-2-methylpyrid-4-one] | – | 22 | 45 | – | – | – | –
Cc1c(O)c(=O)ccn1CCCCCO [3-hydroxy-1-(5'-hydroxypentyl)-2-methylpyrid-4-one] | – | – | – | 149 ± 59 | – | – | Excretion of ^59Fe±SD percent (Mice; Intragastric Administration): 111 ± 22%
Cn1cc(O)c(=O)cc1CO [3-hydroxy-6-hydroxymethyl-1-methylpyrid-4-one] | – | 25 | 49 | – | 93 | 97 | logD [3]: -1.52
O=C(O)CN(CCN(CC(=O)O)CC(=O)O)CCN(CC(=O)O)CC(=O)O [DTPA, diethylenetriamine penta-acetic acid] | 2.0 | – | – | – | – | – | –
CC(=O)N(O)CCCCCNC(=O)CCC(=O)N(O)CCCCCNC(=O)CCC(=O)N(O)CCCCCN [Desferrioxamine, reference compound] | 6.0 | – | – | 414 ± 100 | 17 | 22 | Percentage of iron removed 6 hours (Horse spleen ferritin [4]; 1 mM desferrioxamine, literature (Crichton et al.)): 1.5%; Excretion of ^59Fe±SD percent (Mice; Intragastric Administration): 88 ± 17%
O=C(O)CN(CCN(CC(=O)O)CC(=O)O)CC(=O)O [EDTA, ethylenediamine tetra-acetic acid, reference compound] | – | – | – | – | 27 | 67 | –
O=C(NCCCCN(CCCNC(=O)c1cc(S(=O)(=O)O)cc(O)c1O)C(=O)c1cc(S(=O)(=O)O)cc(O)c1O)c1cc(S(=O)(=O)O)cc(O)c1O [LICAMS] | – | – | – | – | – | – | Percentage of iron removed 6 hours (Horse spleen ferritin [4]; 6 mM LICAMS + 12 mM ascorbic acid, literature (Tufano et al.)): 7%; Percentage of iron removed 6 hours (Horse spleen ferritin [4]; 6 mM LICAMS, literature (Tufano et al.)): 0%
